Source: patent US7867496B2, “Use of TGF-β antagonists to limit nephrotoxicity of immunosuppressive agents” (Genzyme Corporation, priority 2004, dated 2011)
Entries after “also recorded” stand apart in the source; their conditions may differ.

Experiments:
p22phox mRNA = assay: intrarenal p22phox mRNA by real-time PCR, TAC study; assay type: in vivo, rat; details: TAC alone, 90 days, with respect to isograft controls
Protocol: (§1) TAC was administered at 0.25 mg/kg i.m. for 90 days; and the anti-TGF-β antibody, 1D11, was administered at 1 mg/kg twice a week. The control antibody used was 13C4.
(§2) RT-PCR was performed using a Bio-Rad iCycler™ system (Bio-Rad, Hercules, Calif.). RNAs were isolated from renal tissues using a kit from Promega (Madison, […].) and reverse-transcribed into cDNAs by using a cDNA synthesis kit from Invitrogen (Carlsbad, Calif.). The specificity of primers was tested by running a regular PCR for 40 cycles at 95° C. for 20 seconds and 60° C. for 1 minute, followed by separating in ethidium bromide containing agarose gels. The real-time PCR was performed using a SYBR Supermix kit (Bio-RAD) (40 cycles at 95° C. for 20 s and 60° C. for 1 minute). The PCR efficiency was examined by serially diluting template cDNA. The melting curve data was collected to check the PCR specificity and proper negative controls were included in each assay. The mRNA level for each gene for each sample was normalized to β-actin mRNA and presented as 2-[(Ct/β-actin-Ct/gene of interest)] as described in Khanna et al. (2005) Nephron Exp. Nephrol., 101:119-126.
(§3) Intrarenal expression of TGF-β, NOX-1 and p22phox was analyzed by RT-PCR in renal tissues from (1) isografts, (2) TAC, (3) TAC+anti-TGF-β antibody, and (3) TAC+control antibody treated animals at 90 days post transplantation. […]

RAC-1 mRNA = assay: intrarenal RAC-1 mRNA by real-time PCR, TAC study; assay type: in vivo, rat; details: TAC alone, 90 days, with respect to isograft controls
Protocol: as §1, §2, §3

TGF-β mRNA = assay: intrarenal TGF-β mRNA by real-time PCR, TAC study; assay type: in vivo, rat; details: TAC alone, 90 days post transplantation, with respect to isograft controls
Protocol: as §1, §2, §3

p22phox protein = assay: intragraft p22phox protein by Western blot, TAC study; assay type: in vivo, rat; details: TAC compared to untreated allografts and isograft controls; monohydrate
Protocol: (§4) Frozen tissues were homogenized in ice-cold PBS with 1% Triton X-100, 1 mM phenylmethysulfonyl fluoride, 35 ng/ml pepstatin A and 10 ng/ml leupeptin. After centrifugation, 50 μg: of protein was electrophoresed by SDS PAGE as described in Khanna et al. (2005) Nephron Exp. Nephrol., 101:119-126. Blots were probed with appropriate dilutions of a polyclonal anti-p22phox antibody (RS554, a gift from Marsh Lab, Bozeman, Mont.) or anti-NOX antibody (Santa Cruz Biotechnology, Santa Cruz, Calif.), incubated with a horseradish peroxidase-conjugated secondary antibody at a 1:5,000 dilution, and visualized by enhanced chemiluminescence.
(§5) Expression of p22^phox and NOX-1 proteins was analyzed in kidney tissues from isografts, untreated allografts, and animals treated with TAC. Protein lysates (10 μg) were electrophoresed, transferred to nitrocellulose paper and probed with anti-p22^phox and anti NOX-1 antibodies.

TRX mRNA = assay: intrarenal TRX mRNA by real-time PCR, TAC study; assay type: in vivo, rat; details: TAC alone compared to isograft controls
Protocol: as §1, §2
(§6) To further examine the effect of prolonged treatment with TAC on antioxidant genes, intrarenal mRNA expression of SOD and TRX was determined.

SOD mRNA = assay: intrarenal SOD mRNA by real-time PCR, TAC study; assay type: in vivo, rat; details: TAC alone compared to isograft controls
Protocol: as §1, §2, §6

NOX-1 mRNA = assay: intrarenal NOX-1 mRNA by real-time PCR, TAC study; assay type: in vivo, rat; details: TAC alone, 90 days, with respect to isograft controls
Protocol: as §1, §2, §3

NOX-1 protein = assay: intragraft NOX-1 protein by Western blot, TAC study; assay type: in vivo, rat; details: TAC compared to untreated allografts and isograft controls; monohydrate
Protocol: as §4, §5

renal transplant = renal transplant histology, TAC study; assay type: in vivo, rat; details: TAC alone compared to isografts; monohydrate
From the text: A portion of transplanted kidneys from each animal was fixed with formalin and imbedded in paraffin. Hematoxylin and eosin (H&E) and periodic acid schiff (PAS) stainings were used to assess histological changes. Renal histological changes we quantified by standard procedures. The severity of the glomerular injury was scored as described in Khanna et al. (2000) Transplantation, 73:1543-1549. Briefly, in each field, at least 50-60 glomeruli were counted for each specimen and lesions were scored on a five-point scale (0, no proliferation, almost normal histology; 1, about 25% segmental lesion; 2, segmental lesion of greater than 25% but less than 50%; 3, fibrotic lesions with diffuse proliferation; 4, almost completely fibrotic changes). PAS staining was used to determine the extent of extracellular matrix protein accumulation (not scored). Interlobular arteries in H&E-stained slides and lesions were scored.
The slides were mounted with Permount™ for evaluation. Samples from each group were graded for histopathological changes and immunohistochemical staining. The intensity of immunostaining was graded from 0 (no staining) to 4+ (maximum staining). […]
The effect of TAC, TAC+a control antibody and TAC+anti-TGF-β antibody treatment on morphological changes was assessed by histopathological examination in H&E- and PAS-stained thin kidney sections were evaluated.

TGF-β protein = assay: intrarenal TGF-β protein immunohistochemistry, TAC study; assay type: in vivo, rat; details: TAC alone
Protocol: Plasma levels of TGF-β protein were measured as described in Khanna et al. (1999) Transplantation, 67:882-889. Intrarenal protein expression of TGF-β was examined immunohistochemically as essentially as described in Khanna et al. (2000) Transplantation, 73:1543-1549; Khanna et al. (2002) Kidney Intl., 62:2257-63; and Khanna et al. (1999) Transplantation, 67:614-619. Formalin-fixed paraffin-embedded tissues were sliced into fine sections, deparaffinized in xylene and rehydrated in graded ethanol to phosphate-buffered saline (PBS). After blocking endogenous peroxidase activity for 30 minutes with methanol/H2O2 (18:1 vol/vol), nonspecific binding was blocked for 1 hour with 1.5% avidin/biotin diluted in PBS supplemented with 10% normal horse serum and 3% BSA. Tissue sections were incubated overnight at 4° C. with specific primary antibodies (50 μg/ml) in above-mentioned PBS. Following extensive washing in PBS, slides were incubated at room temperature for 1 hour with diluted (1:1,000) biotin-labeled anti-mouse IgG horse anti-serum and washed again extensively in PBS and then in the ABC solution for 30 minutes. The slides were developed for 10 minutes in diaminobenzidine (DAB) and rinsed in water for 10 minutes. The slides were then counterstained with hematoxylin and dehydrated in graded ethanol and xylene.
The slides were mounted with Permount™ for evaluation. […]

TGF-β = details: cited from earlier work

## C=CC[C@@H]1/C=C(\C)C[C@H](C)C[C@H](OC)[C@H]2O[C@@](O)(C(=O)C(=O)N3CCCC[C@H]3C(=O)O[C@H](/C(C)=C/[C@@H]3CC[C@@H](O)[C@H](OC)C3)[C@H](C)[C@@H](O)CC1=O)[C@H](C)C[C@@H]2OC (relative stereo) [TAC, [3S-[3R*[E (1S*,3S*,4S*)], 4S*,5R*,8S*,9E, 12R*,14R*,15S*,16R*,18S*,19S*,26aR*]]-5,6,8,11,12,13,14,15,16,17,18,19,24,25,26,26a-hexadecahydro-5,19-dihydroxy-3-[2-(4-hydroxy-3-methoxycyclohexyl)-1-methylethenyl]-14,16-dimethoxy-4,10,12,18-tetramethyl-8-(2-propenyl)-15,19-epoxy-3H-pyrido[2,1-c][1,4]oxaazacyclotricosine-1,7,20,21 (4H,23H)-tetrone, monohydrate]
p22phox mRNA
  increase in intrarenal p22phox mRNA expression: 31 fold
RAC-1 mRNA
  increase in intrarenal RAC-1 mRNA expression: 20 fold
TGF-β mRNA
  increase in intrarenal TGF-β mRNA expression: 37 fold
p22phox protein
  intragraft expression of p22phox protein: increased intragraft expression; also recorded: elevated
TRX mRNA
  decrease in intrarenal TRX mRNA expression: 80 fold
SOD mRNA
  decrease in intrarenal SOD mRNA expression: 27 fold
NOX-1 mRNA
  increase in intrarenal NOX-1 mRNA expression: 18 fold
NOX-1 protein
  intragraft expression of NOX-1 protein: increased intragraft expression; also recorded: elevated
Renal transplant
  renal histological changes (H&E, PAS): marked histological changes; also recorded: statistically significant (p<0.036) difference
TGF-β protein
  intrarenal staining for TGF-β protein: increased staining for TGF-β protein

## CAT192: fully human recombinant anti-TGF-β antibody generated by phage display; specifically binds TGF-β1 only
TGF-β; approximately, binds TGF-β1 only, read-out: antigen affinity
  Kd: ~8.4 pM
TGF-β; mammalian isoforms of TGF-β
  TGF-β isoform binding specificity: specifically binds TGF-β1 only
